# Source: patent US7846651B2, “Epitope/peptide recognized by HLA-A2402-restricted Ep-CAM-specific CTL and use of the same” (Aichi Prefecture, priority 2004, dated 2010)
# What was measured:
# T2-A24 cells = assay: 51Cr release assay of C27 against peptide-pulsed T2-A24; assay type: cell-based; settings: effector to target ratio of 1
# PC9 = assay: Cold target inhibition assay; assay type: cell-based; settings: peptide 1×10^−5 M pulsed T2-A24 cells
# Method: Cold target inhibition assay was carried out according to the method of Arai et al. (Blood, 97:2903-2907, 2001). […] After several washings, the resultants were incubated with 2×10^4 effector cells for 1 hour to yield a ratio of peptide-pulsed T2-A24 cells to target cells of 40:1, 20:1, 10:1, and 5:1. 2×10^3 51Cr-labeled PC9 cell lines were added to each well. The cytotoxicity was determined as described in the item 7) regarding CTL assays.
# HLA-A2402 = HLA-A2402 (Homo sapiens, UniProt P04439, D101N/D140Y/D185E/E176V/E190D/F33S/G103R/G107R/I119L/I121M/I306V/K335N/L105A/L180Q/L300P/N151K/N90K/Q86E/Q94H/R106L/R138H/R89G/T104I/T345S/V100E/W191G/Y123F); assay: MHC stabilization assay using T2-A24 cells; assay type: binding; settings: ranking among the seven peptides
# [1] = tested on: CD8 positive T-cells of HLA-A2402 positive healthy donors; assay: ELISPOT assay of IFN-γ; assay type: cell-based, human; settings: T-cell lines stimulated by peptide-pulsed dendritic cells, incubated with peptide-pulsed T2-A24 cells
# Method: Subsequently, self-derived dendritic cells were pulsed at room temperature for 2 to 4 hours with each of the Ep-CAM synthesis peptides with a concentration of 10 μM in an AIM-V culture medium (product of Gibco) containing 5×10^−5 M β-mercaptoethanol, followed by irradiation (33Gy).
# The dendritic cells (1×10^5 cells) were then cocultivated in a culture tube with CD8 positive T lymphocytes (1×10^6 lymphocytes) in a RPMI1640 culture medium containing 10% human blood serum, 25 ng/mL recombinant human IL-7 (product of R&D systems company), and 5 ng/mL recombinant human IL-12 (product of R&D systems company).
# After seven days of cultivation, the cells were stimulated by adding 1×10^5 peptide-pulsed self-derived dendritic cells prepared as above. After a further seven days of cultivation, the cells were stimulated 3 times by the same procedure. After each restimulation, human recombinant IL-2 (product of Takeda Pharmaceutical Company, Ltd.) was added to give a final concentration of 20 units/ml. Actively proliferating cells were divided into 2 or 3 tubes as necessary, and cultured in a fresh culture medium containing 20 units/ml of IL-2. […]
# The plate was incubated at 37° C. for 20 hours in a 5% CO2 incubator, and thoroughly washed with PBS containing 0.05% Tween 20. […] The number of diffused large spots was counted under the microscope.
compound,measurement,setting,value
CC[C@H](C)[C@H](NC(=O)[C@H](Cc1ccccc1)NC(=O)[C@H](CCCCN)NC(=O)[C@@H]1CCCN1C(=O)[C@H](CC(=O)O)NC(=O)[C@H](CC(C)C)NC(=O)[C@H](CCC(N)=O)NC(=O)[C@H](Cc1ccc(O)cc1)NC(=O)[C@@H](N)CCCNC(=N)N)C(=O)O [Ep173],peptide concentration at which C27 demonstrated cytotoxicity against pulsed T2-A24 cells,T2-A24 cells,100 pM
same,inhibition of C27-mediated cytotoxicity against PC9 by peptide-pulsed T2-A24 cold target cells,PC9,specifically inhibited
"EMGEMHREL (… PROTEIN EPITOPE PEPTIDE …) [Ep304, Ep-CAM peptide, amino acid positions 304-312]",affinity for the HLA-A2402,HLA-A2402,lowest affinity
"RYLRDQQLL (SYTHETIC PROTEIN EPITOPE PEPTIDE …) [ENV584, human immunodeficiency virus-1 (HIV-1) envelope peptide, residues 584-592, control, reference compound]",production of IFN-γ spots,[1],not observed
"YYVDEKAPEF (… PROTEIN EPITOPE PEPTIDE …) [Ep250, Ep-CAM peptide, amino acid positions 250-259]",production of IFN-γ spots,[1],specifically produced IFN-γ spots
